Here are results for two molecules from patent US20040005686A1, “Crystalline structure of human MAPKAP kinase-2” (Pharmacia Corporation, priority 2002, published 2004).

One test relates to MK-2. Particulars: cited from earlier work.
Test [1] addresses T1, Human MAPKAP kinase-2 (45-371) (human, UniProt P49137 45-371).
T1 construct: Expressed in E. coli as a GST fusion; One copy of the complex per asymmetric unit; also called MK-2(45-371); MK-2
In words: X-ray crystallography of MK-2 co-crystallized with AMP-PNP, SC-83598 and MgCl2.
Protocol: Following this general procedure the co-crystals were grown by sitting drop vapor diffusion. […] This protein solution was mixed in a 1:1 ratio with a reservoir solution containing around 1.6-2.6M ammonium sulfate and 100 mM sodium acetate, the reservoir solution being at a pH of between around 4.2-5.4. Small bipyramidal or prism-shaped crystals appeared in the drops in 1-2 days and grew to as large as 0.4 mm×0.4 mm in about 1 to 3 weeks.
Small bipyramidal or prism-shaped crystals appeared in the drops in 1-2 days and grew to as large as 0.4 mm×0.4 mm over 1-3 weeks.

Ends that are not written are not given here.

T1 sequence (P49137 45-371 limits assumed): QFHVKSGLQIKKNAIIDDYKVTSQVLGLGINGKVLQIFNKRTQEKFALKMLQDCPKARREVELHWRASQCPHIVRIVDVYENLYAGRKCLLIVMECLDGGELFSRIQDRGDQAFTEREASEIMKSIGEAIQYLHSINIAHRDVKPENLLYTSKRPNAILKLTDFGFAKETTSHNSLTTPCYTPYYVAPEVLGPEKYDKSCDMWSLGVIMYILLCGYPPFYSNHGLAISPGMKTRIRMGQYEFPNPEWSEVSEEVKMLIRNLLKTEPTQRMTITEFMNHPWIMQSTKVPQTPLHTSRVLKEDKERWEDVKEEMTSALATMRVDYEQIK

Consider `C[S+]([O-])c1ccc(-c2nc(-c3ccncc3)c(-c3ccc(F)cc3)[nH]2)cc1` (centres unmarked) [SB203580], for which the “activation of MK-2” value in the test with MK-2 was “inhibit activation of MK-2”.

B1: SC-83598 (13-residue inhibitor peptide) (peptide)
peptide: KKKALLRQLGVAA
modifications: not fully specified
As to B1, in test [1], the binding result is on record as “binds”.
